How the values were obtained:
Experiment in all cases: relative viability (nuclei count vs DMSO), 5 days (fraction); higher = more cells survive
[1] = compound: CCn1c(-c2nonc2N)nc2cnc(Oc3cccc(NC(=O)c4ccc(OCCN5CCOCC5)cc4)c3)cc21 + COc1cccc2cc(-c3nc([C@H]4CC[C@H](C(=O)O)CC4)n4ncnc(N)c34)[nH]c12 [OSI-027] (partner 0.5 µM)
Outline: (§1)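 One day after seeding in 1536-well plates, lung cancer cell lines were dosed by pin tool. Dosing was either single-drug or a fixed anchor-drug dose plus five library-drug doses (not always all listed) in √10 steps. After 5 days, nuclei were stained in one fix-and-stain step and counted on 4× images, and relative viability is the nuclei count of treated wells over that of vehicle wells, given as the median of duplicate plates.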

[2] = compound: CCn1c(-c2nonc2N)nc2cnc(Oc3cccc(NC(=O)c4ccc(OCCN5CCOCC5)cc4)c3)cc21 + O=C(c1cc(Cc2n[nH]c(=O)c3ccccc23)ccc1F)N1CCN(C(=O)C2CC2)CC1 [Olaparib] (partner 8 µM)
Outline: as §1

Mirin + Pictilisib = compound: N=C1NC(=O)/C(=C/c2ccc(O)cc2)S1 [Mirin] + CS(=O)(=O)N1CCN(Cc2cc3nc(-c4cccc5[nH]ncc45)nc(N4CCOCC4)c3s2)CC1 [Pictilisib] (partner 1 µM)
Outline: as §1

Mirin + Olaparib = compound: N=C1NC(=O)/C(=C/c2ccc(O)cc2)S1 [Mirin] + O=C(c1cc(Cc2n[nH]c(=O)c3ccccc23)ccc1F)N1CCN(C(=O)C2CC2)CC1 [Olaparib] (partner 8 µM)
Outline: as §1

Cell Line | relative viability ([1]; first compound 0.04 µM) | relative viability ([1]; first compound 0.1265 µM) | relative viability ([1]; first compound 0.4 µM) | relative viability ([1]; first compound 1.265 µM) | relative viability ([1]; first compound 4 µM) | relative viability ([2]; first compound 0.04 µM) | relative viability ([2]; first compound 0.1265 µM) | relative viability ([2]; first compound 0.4 µM) | relative viability ([2]; first compound 1.265 µM) | relative viability ([2]; first compound 4 µM) | relative viability (Mirin + Pictilisib; first compound 0.25 µM) | relative viability (Mirin + Pictilisib; first compound 0.7906 µM) | relative viability (Mirin + Pictilisib; first compound 2.5 µM) | relative viability (Mirin + Pictilisib; first compound 7.906 µM) | relative viability (Mirin + Pictilisib; first compound 25 µM) | relative viability (Mirin + Olaparib; first compound 0.25 µM) | relative viability (Mirin + Olaparib; first compound 0.7906 µM) | relative viability (Mirin + Olaparib; first compound 2.5 µM) | relative viability (Mirin + Olaparib; first compound 7.906 µM) | relative viability (Mirin + Olaparib; first compound 25 µM)
LC-2-ad | 0.892 | 0.8 | 0.39 | 0.386 | 0.498 | 0.753 | 0.677 | 0.716 | 0.438 | 0.334 | 0.554 | 0.298 | 0.497 | 0.216 | 0.356 | 0.743 | 0.757 | 0.706 | 0.784 | 0.733
RERF-LC-KJ | 0.625 | 0.496 | 0.38 | 0.371 | 0.389 | 0.898 | 0.84 | 0.759 | 0.447 | 0.388 | 0.716 | 0.518 | 0.563 | 0.594 | 0.439 | 1.03 | 1.12 | 0.941 | 0.972 | 0.875
EBC-1 | – | – | – | – | – | 0.777 | 0.716 | 0.637 | 0.492 | 0.535 | 0.456 | 0.343 | 0.378 | 0.238 | 0.204 | 0.707 | 0.783 | 0.693 | 0.561 | 0.471
HCC-15 | 0.806 | 0.617 | 0.324 | – | 0.536 | 0.745 | 0.737 | 0.766 | 0.581 | 0.542 | 0.789 | 0.411 | 0.665 | 0.551 | 0.517 | 0.718 | 0.675 | 0.73 | 0.536 | 0.502
NCI-H1563 | 0.697 | 0.705 | 0.576 | 0.724 | 0.644 | – | – | – | – | – | 0.619 | 0.618 | 0.651 | 0.662 | 0.538 | – | – | – | – | –
COR-L 105 | 0.976 | 0.654 | 0.361 | 0.374 | 0.26 | 0.631 | 0.617 | 0.699 | 0.554 | 0.457 | 0.407 | 0.263 | 0.397 | 0.373 | 0.326 | 0.738 | 0.843 | 0.696 | 0.683 | 0.683
NCI-H596 | 0.755 | 0.715 | 0.591 | 0.528 | 0.615 | 0.622 | 0.666 | 0.739 | 0.739 | 0.585 | 0.447 | 0.391 | 0.43 | 0.361 | 0.345 | 0.661 | 0.775 | 0.67 | 0.745 | 0.881
LU99A | 0.298 | 0.254 | 0.227 | 0.259 | 0.225 | 0.313 | 0.299 | 0.262 | 0.256 | 0.244 | 0.282 | 0.302 | 0.295 | 0.283 | 0.271 | 0.297 | 0.206 | 0.288 | 0.228 | 0.165
NCI-H1666 | 1.02 | 0.995 | 0.74 | 0.796 | 0.668 | 0.718 | 0.863 | 0.702 | 0.717 | 0.551 | 0.445 | 0.64 | 0.365 | 0.36 | 0.324 | 0.763 | 0.797 | 0.737 | 0.71 | 0.728

Reference: the supplement of paper PMC10307832
